The values that follow come from US20060189663A1, “Pyrrole-2,5-dithione derivatives as liver x receptor modulators” (AstraZeneca AB, priority 2003, published 2006).

The experiment concerns T1, LXRalpha and/or beta.
T1 construct: fused on or other part: His-tag (6xHis) on the LXR-LBD
Nature of the experiment: Co-activator recruitment assay (time-resolved fluorescence, LXR-LBD / SRC-1 peptide). The class given is biochemical, human. As to conditions: LXR isoform (alpha or beta) not stated; 22-R Hydroxycholesterol at 50 μM as 100% control; read-out: EC50 in coactivator recruitment assays. An excerpt: Co-Activator Recruitment Assay The Ligand Binding Domain (LBD) of human LXRalpha (amino acid 205-447) and LXRbeta (amino acid 216-461) was produced by recombinant techniques in E coli. A fragment of the human Steroid Receptor Co-Activator-1 (SRC-1) was produced as a synthetic peptide. An anti-6His-antibody coupled with Europium (Eu^3+) was used to recognize the His-tag on the LXR-LBD and Allophycocyanin (APC) coupled to streptavidin was used to recognize the biotinylated SRC-1. Agonist binding to LXRalpha or LXRbeta enhances the affinity of LXR towards SRC-1 and thereby brings Eu^3+ and APC in close proximity. Eu^3+ is excited at 337 nm and emitts light at 620 nm. This emission, when in close proximity, excites APC to emit light at 665 nm.
Dilution plates with compounds in DMSO were further diluted in buffer {20 mM [Tris(hydroxymethyl)aminomethane] pH 7.5, 0.125% CHAPS {3-[(3-Cholamidopropyl)dimethylammonio]-1-propanesulfonate}, 2 mM DTT (Dithiothreitol) and 0.05% BSA (Bovine Serum Albumin)} in order to reduce DMSO concentration, 0.5 μl to 13.5 μl. To this, 6 μl assay mix was added and the plates (384-well V-groove plates) were incubated at room temperature for 60 to 80 min. […] Time-resolved fluorescence readings were done in a Wallac Victor reader at 665 nm followed by reading at 615 nm. […]

For orientation: EC50 means the concentration that produces a half-maximal response. In the case of `CCCCN1C(=O)C(c2ccccc2)=C(Nc2ccc(OC)cc2)C1=S` [Example 7, 1-Butyl-4-[(4-methoxyphenyl)amino]-3-phenyl-5-thioxo-1,5-dihydro-2H-pyrrol-2-one], the EC50 is 90 nM.
With `Nc1ccc(CN2C(=S)C(Nc3ccc(OC(F)F)cc3)=C(c3ccccc3)C2=S)cn1` [Example 18, 1-[(6-Aminopyridin-3-yl)methyl]-3-{[4-(difluoromethoxy)phenyl]amino}-4-phenyl-1H-pyrrole-2,5-dithione] the figure was 140 nM.
